Data reported in patent publication US8802240B2, “Uses of formulations of thyroid hormone analogs and nanoparticulate forms thereof to increase chemosensitivity and radiosensitivity in tumor or cancer cells” (Nanopharmaceuticals LLC, priority 2011, dated 2014).
“Also recorded” adds a separate entry of the source. Read-outs that look alike come from different tables or passages of the source.

Legend:
FGF2 cDNA = assay: RT-PCR of FGF2 in ECV304 cells; format: cell-based; conditions: T4 10^−7 mol/L, apparent by 6 hours, further enhanced by 48 hours
Procedure: RNA (1 μg) was subjected to reverse transcription-polymerase chain reaction (RT-PCR) using the Access RT-PCR system (Promega). Total RNA was reverse transcribed into cDNA at 48° C. for 45 minutes, then denatured at 94° C. for 2 minutes. Second-strand synthesis and PCR amplification were performed for 40 cycles with denaturation at 94° C. for 30 s, annealing at 60° C. for 60 s, and extension at 68° C. for 120 s, with final ex-tension for 7 minutes at 68° C. after completion of all cycles. PCR primers for FGF2 were as follows: FGF2 sense strand 5′-[…]-3′ (SEQ ID NO:1), antisense strand 5′ […]-3′ (SEQ ID NO:2); the length of the PCR product was 734 bp. Primers for GAPDH included the sense strand 5′-[…]-3′ (SEQ ID NO:3), and antisense strand 5′-[…]-3′ (SEQ ID NO:4); the length of the PCR product was 218 bp. […] The target bands of the gel were quantified using LabImage software (Kapelan), and the value for [FGF2/GAPDH]X10 calculated for each time point.

[1] = system: chick chorioallantoic membrane (CAM) blood vessel branch points; assay: Chick chorioallantoic membrane (CAM) model of angiogenesis; format: in vivo; conditions: for generation of new blood vessels from existing vessels promoted: 10^−7-10^−9 M
Procedure: In vivo neovascularization was examined by methods described previously. 9-12 Ten-day-old chick embryos were purchased from SPAFAS (Preston, Conn.) and incubated at 37° C. with 55% relative humidity. A hypodermic needle was used to make a small hole in the shell concealing the air sac, and a second hole was made on the broad side of the egg, directly over an avascular portion of the embryonic membrane that was identified by candling. A false air sac was created beneath the second hole by the application of negative pressure at the first hole, causing the CAM to separate from the shell. […] Thyroid hormone, hormone analogs, FGF2 or control solvents, and inhibitors were then applied to the disks and the disks allowed to dry. The disks were then suspended in PBS and placed on growing CAMs. […] At 24 hours, the MAPK cascade inhibitor PD 98059 was also added to CAMs topically by means of the filter disks. […] The number of vessel branch points contained in a circular region equal to the area of each filter disk were counted. […] In addition, each experiment was performed 3 times. The resulting angiogenesis index is the mean±SEM of new branch points.

ERK1/2 = assay: MAPK activation in ECV304 cells (immunoblot of nuclear phosphorylated ERK1/2); format: cell-based; conditions: for effect on T4-induced ERK1/2 activation (in words): PD 98059 30 μmol/L or CGP41251 100 nmol/L for 30 minutes, then 10^−7 M T4 for 15 minutes
Procedure: ECV304 endothelial cells were cultured in M199 medium with 0.25% hormone-depleted serum 13 for 2 days. […] Nuclear fractions were prepared from all samples by the method reported previously (see Li et al., Carcinogenesis 29:62-69 (2008)), the proteins separated by polyacrylamide gel electrophoresis, and transferred to membranes for immunoblotting with antibody to phosphorylated ERK 1/2.

pKa of functional groups = format: physicochemical; conditions: estimated
[2] = system: matrigel plug angiogenesis; assay: Mouse matrigel model of angiogenesis (plug hemoglobin); format: in vivo, mice (C57BL/6NCr); conditions: numbers are Tetrac analogs of Example 13; for Mean inhibition of angiogenesis (%) / Hemoglobin (mg/mL) ± SEM: FGF 100 ng + test substance 10 μg/plug; for Hemoglobin (mg/mL) ± SEM: n = 7-14
Procedure: Normal male mice (C57BL/6NCr) 6-8 weeks of age and weighing ˜20 g were purchased from Taconic farm. Animals were housed 4 per cage, in controlled conditions of temperature (20-24° C.); humidity (60-70%) and 12 hrs. light/dark cycle provided with food and water ad libitum. […] Aliquots of matrigel were placed into cold polypropylene tubes to prevent the matrigel from solidifying and the angiogenesis promoter added to matrigel with or without agonist. Mice were treated daily. Matrigel was subcutaneously injected as triple injection per animal at 100 μL/animal. At day 14 post plug implant all animals were killed in CO2 chamber and matrigel plugs were collected. Plug hemoglobin content was analyzed from three implants/mice (n=6 per group) to measure angiogenesis.
The matrigel plugs dissected from the mice were carefully stripped of any remaining peritoneum. The plugs were placed into 0.5 mL tube of ddH2O and homogenized for 5-10 min. […] Absorbance was read with a Microplate Manager ELISA reader at 540 nm. […] Hemoglobin concentration is a reflection of the number of blood vessels in the plugs.

SF763 glioblastoma cells = conditions: 85 μM, 16 hours at 37° C., cited from earlier work
Morris 7800 hepatoma = conditions: PTU 0.1%; cited from earlier work
[3] = system: glioblastoma (GBM) patients; conditions: induction of mild hypothyroidism; cited from earlier work
[4] = system: transplantable liver tumor; conditions: cited from earlier work
M21 melanoma cells = conditions: 20 ug/ml; doses of 0, 5, and 10 Gy; cited from earlier work
ECV304 endothelial cells = assay: FGF2 release from ECV304 endothelial cells (ELISA); format: cell-based
Procedure: ECV304 endothelial cells were cultured in M199 medium supplemented with 10% fetal bovine serum. […] After 72 hours, the supernatants were harvested and assays for FGF performed without dilution using a commercial ELISA system (R&D Systems) (See Davis et al., Circ Res 94:1500-1506 (2004)).

V-79 cells = conditions: cited from earlier work

## N[C@@H](Cc1cc(I)c(Oc2cc(I)c(O)c(I)c2)c(I)c1)C(=O)O [Compound T4, L-thyroxine]
FGF2 cDNA
  abundance of FGF2 cDNA, corrected for GAPDH content (in words): increase in abundance of FGF2 cDNA
[1]
  generation of new blood vessels from existing vessels promoted: two- to three-fold
[1]; T4 0.05 μmol/L + FGF2 0.5 μg/mL
  effect on the angiogenic effect of sub-maximal FGF2 (in words): enhanced
ERK1/2; T4 10^−7 mol/L
  appearance of phosphorylated ERK1/2 in cell nuclei: ≤ 15 min
  time of maximal level of nuclear phosphorylated ERK1/2: 30 min
ERK1/2; T4 10^−7 mol/L + FGF2 10 ng/mL, 15-minute co incubation
  effect on MAPK activation caused by FGF2 (in words): enhanced the MAPK activation caused by FGF2
pKa of functional groups; read-out: pKa of the COOH (carboxylic acid) group
  pKa: ~2
pKa of functional groups; read-out: pKa of the NH2 (amino) group
  pKa: ~9

## CC(C)[Si](OC(=O)Cc1cc(I)c(Oc2cc(I)c(O)c(I)c2)c(I)c1)(C(C)C)C(C)C [Tetrac analog 5, Triisopropylsilyl-2-(4-(4-hydroxy-3,5-diiodophenoxy)-3,5-diiodophenyl)acetate]
[1]; FGF (1.25 μg/ml) + test substance, 10 μg/plug per footnote, numbers are Tetrac analogs of Example 13
  Mean % Inhibition: 75 ± 19%
[1]; FGF (1.25 μg/ml) + test substance, 10 μg/plug per footnote, numbers are Tetrac analogs of Example 13, n = 8, PBS 73 ± 6, FGF 130 ± 11
  Mean Branch points: 87 ± 11
other
  melting point: 146 °C
[2]
  Mean inhibition of angiogenesis (%): 104 ± 14%
  Hemoglobin (mg/mL) ± SEM: 0.2 ± 0.1 mg/mL
  inhibition of FGF-induced angiogenesis (in words): strong

## CC(C)[C@H]1C(=O)N[C@@H](CCCN=C(N)N)C(=O)NCC(=O)N[C@@H](CC(=O)O)C(=O)N[C@H](Cc2ccccc2)C(=O)N1C [EMD121974]
SF763 glioblastoma cells
  increase of α: 4.4 fold
SF763 glioblastoma cells; without approximately 0.04
  α component in the LQ survival equation: ~0.18 Gy^−1

## CO[C@@H]1[C@H](N(C)C(=O)c2ccccc2)C[C@H]2O[C@]1(C)n1c3ccccc3c3c4c(c5c6ccccc6n2c5c31)C(=O)NC4 [CGP41251]
ERK1/2
  effect on T4-induced ERK1/2 activation (in words): blocked

## CCCc1cc(=O)[nH]c(=S)[nH]1 [PTU, 6-N-propyl-2-thiouracil]
Morris 7800 hepatoma
  increase in survival: approximately 1.3 fold
[1]; filter disks pretreated with 1 mmol/L PTU
  effect of the presence of PTU on the effect of T4 (in words): did not reduce the effect of T4
[3]
  improvement of the duration of survival: 3 fold
[4]; 10 Gy of x-rays plus 0.05% PTU in the drinking water, control 6.2, x-rays alone 11.2
  time needed to grow from approximately 270 mm^3 to 900 mm^3: 17.8 days
[4]; in vivo
  growth rate with PTU alone (in words): no difference in growth rate from control neoplasms

## CNTO 95: human anti-αv integrin monoclonal antibody
M21 melanoma cells
  increase in sensitivity (in vitro apoptosis) by a factor of: 2 fold

## O=C(Cc1cc(I)c(Oc2cc(I)c(OCCCl)c(I)c2)c(I)c1)NC1CCCCC1 [Tetrac analog 15, 2-(4-(4-(2-chloroethoxy)-3,5-diiodophenoxy)-3,5-diiodophenyl)-N-cyclohexylacetamide]
other
  melting point: 263 °C

## N[C@@H](Cc1cc(I)c(Oc2ccc(O)c(I)c2)c(I)c1)C(=O)O [Compound T3, 3,5,3′-triiodo-L-thyronine]
[1]; 1 nmol/L (1 nM) for 3 days, vs PBS
  increase in blood vessel branch formation: 2 fold
[1]
  generation of new blood vessels from existing vessels promoted: two- to three-fold
ECV304 endothelial cells; T3 (0.01 μmol/L), 3 days, Control 27.7 ± 3.1
  FGF2 (pg/mL/10^6 cells): 98.8 ± 0.5 pg/mL/10^6 cells

## NC(=O)c1cccc(N)c1 [Compound 3AB, 3-aminobenzamide]
V-79 cells; Thraves et al.
  inhibition of PLDR: ~70%
V-79 cells; with 3AB, without 3.4
  Dq value: 1 Gy

## COc1cccc(-c2cc(=O)c3ccccc3o2)c1N [PD 98059]
[1]; PD 98059 3 μmol/L, T4 0.1 μmol/L and T3 1 nmol/L
  effect on angiogenesis stimulated by T4 and T3 together (in words): completely blocked; also recorded: fully inhibited
[1]; PD 98059, FGF2 1 μg/mL
  effect on FGF2 stimulation of branch formation (in words): effectively blocked
ECV304 endothelial cells; T3 + PD 98059 (2 μmol/L)
  FGF2 (pg/mL/10^6 cells): 28.4 ± 3.2 pg/mL/10^6 cells
ECV304 endothelial cells; T3 + PD 98059 (20 μmol/L)
  FGF2 (pg/mL/10^6 cells): 21.7 ± 3.5 pg/mL/10^6 cells
ECV304 endothelial cells; T4 + PD 98059 (2 μmol/L)
  FGF2 (pg/mL/10^6 cells): 26.5 ± 4.5 pg/mL/10^6 cells
ECV304 endothelial cells; T4 + PD 98059 (20 μmol/L)
  FGF2 (pg/mL/10^6 cells): 23.2 ± 4.8 pg/mL/10^6 cells
ERK1/2
  effect on T4-induced ERK1/2 activation (in words): inhibited

## O=C(Cc1cc(I)c(Oc2cc(I)c(OCC3CO3)c(I)c2)c(I)c1)NC1CCCCC1 (centres unmarked) [Tetrac analog 6, N-cyclohexyl-2-(4-(3,5-diiodo-4-(oxiran-2-ylmethoxy)phenoxy)-3,5-diiodophenyl)acetamide]
[1]; numbers are Tetrac analogs of Example 13
  inhibition of angiogenesis in the CAM assay (in words): not as strong as compounds 3, 5, 7, and 9
other
  melting point: 242 °C
[2]
  Mean inhibition of angiogenesis (%): 80 ± 16%
  Hemoglobin (mg/mL) ± SEM: 0.7 ± 0.1 mg/mL
  inhibition of FGF-induced angiogenesis (in words): strong
